Assay results as given in US10294202B2, “Pyrrolidinones as herbicides” (FMC Corporation, priority 2013, dated 2019).

How the values were obtained:
johnsongrass = test: Test E preemergence herbicide test; format: in vivo, Sorghum halepense; design: key: 0 = no effect, 100 = complete control
How it was run: (§1)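 Seeds were sown in silt loam soil and treated preemergence with test chemicals in a non-phytotoxic solvent mixture containing a surfactant. Plants were kept in a greenhouse for 21 days, then visually rated against untreated controls on a 0–100 scale (0 = no effect, 100 = complete control).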

crabgrass, Brazil = test: Test E preemergence herbicide test; format: in vivo, Digitaria horizontalis; design: key: 0 = no effect, 100 = complete control
How it was run: as §1

ryegrass, Italian = test: Test D pre-/postemergence herbicide test; format: in vivo, Lolium multiflorum; conditions: Preemergence, scale 0 to 100 (0 no effect, 100 complete control)
How it was run: (§2)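 Seeds sown in silt loam were sprayed preemergence with test chemicals in a non-phytotoxic solvent mixture with surfactant. Postemergence plants grown in peat/vermiculite medium were treated at 2–18 cm (1- to 4-leaf stage). After 7 to 21 days in a controlled environment, injury was rated visually versus controls, 0 (no effect) to 100 (complete control).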

sprangletop, Brdd. = test: Test F flood (paddy) test; format: in vivo, Leptochloa fascicularis; conditions: 21 d, scale 0-100
How it was run: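 Visual injury ratings (0 no effect to 100 complete control) were taken 21 d after treatment against untreated controls. Compounds went directly into paddy water held 3 cm above soil, applied at the 2.0–2.5-leaf stage in sterilized Tama silt loam under a 30/27 °C, 16-h greenhouse regime.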

deadnettle = test: Test D pre-/postemergence herbicide test; format: in vivo, Lamium amplexicaule; conditions: Preemergence; for Plant response rating, Deadnettle: scale 0 to 100 (0 no effect, 100 complete control); for Plant response rating: 250 g ai/ha, Deadnettle, scale 0 to 100
How it was run: as §2

surinam grass = test: Test E preemergence herbicide test; format: in vivo, Brachiaria decumbens; design: key: 0 = no effect, 100 = complete control
Description: Seeds of plant species selected from corn (Zea mays), soybean (Glycine max), velvetleaf (Abutilon theophrasti), lambsquarters (Chenopodium album), wild poinsettia (Euphorbia heterophylla), pigweed, palmer (palmer pigweed, Amaranthus palmeri), waterhemp (common waterhemp, Amaranthus rudis), surinam grass (Brachiaria decumbens), crabgrass, large (large crabgrass, Digitaria sanguinalis), crabgrass, Brazil (Brazilian crabgrass, Digitaria horizontalis), panicum, fall (fall panicum, Panicum dichotomiflorum), foxtail, giant (giant foxtail, Setaria faberii), foxtail, green (green foxtail, Setaria viridis), goosegrass (Eleusine indica), johnsongrass (Sorghum halepense), ragweed (common ragweed, Ambrosia elatior), barnyardgrass (Echinochloa crus-galli), sandbur (southern sandbur, Cenchrus echinatus), arrowleaf […] rhombifolia), ryegrass, Italian (Italian ryegrass, Lolium multiflorum), dayflower, VA (Virginia dayflower, Commelina virginica), field bindweed (Convolvulus arvensis), morningglory (Ipomoea coccinea), nightshade (eastern black nightshade, Solanum ptycanthum), kochia (Kochia scoparia), nutsedge, yellow (yellow nutsedge, Cyperus esculentus), cocklebur (common cocklebur, Xanthium strumarium), smartweed (ladysthumb smartweed, Polygonum Persicaria) and beggarticks (hairy beggarticks, Bidens pilosa), were planted into a silt loam soil and treated preemergence with test chemicals formulated in a non-phytotoxic solvent mixture which included a surfactant. Treated plants and controls were maintained in a greenhouse for 21 days, after which time all species were compared to controls and visually evaluated. Plant response ratings, summarized in Table E, are based on a scale of 0 to 100 where 0 is no effect and 100 is complete control. A dash (-) response means no test result.

Row | SMILES | Plant response rating, Johnsongrass (johnsongrass; 31 g ai/ha) | Plant response rating, Johnsongrass (johnsongrass; 62 g ai/ha) | Plant response rating, Johnsongrass (johnsongrass; 125 g ai/ha) | Plant response rating, Johnsongrass (johnsongrass; 250 g ai/ha) | Plant response rating, Crabgrass, Brazil (crabgrass, Brazil; 31 g ai/ha) | Plant response rating, Crabgrass, Brazil (crabgrass, Brazil; 62 g ai/ha) | Plant response rating, Crabgrass, Brazil (crabgrass, Brazil; 125 g ai/ha) | Plant response rating, Crabgrass, Brazil (crabgrass, Brazil; 250 g ai/ha) | Plant response rating, Ryegrass, Italian (ryegrass, Italian; 62 g ai/ha) | Plant response rating, Ryegrass, Italian (ryegrass, Italian; 125 g ai/ha) | Plant response rating, Ryegrass, Italian (ryegrass, Italian; 31 g ai/ha) | Plant response rating, Ryegrass, Italian (ryegrass, Italian; 250 g ai/ha) | Plant response rating, Sprangletop, Brdd. (sprangletop, Brdd.; 125 g ai/ha) | Plant response rating, Sprangletop, Brdd. (sprangletop, Brdd.; 250 g ai/ha) | Plant response rating, Sprangletop, Brdd. (sprangletop, Brdd.; 500 g ai/ha) | Plant response rating, Deadnettle (deadnettle; 62 g ai/ha) | Plant response rating, Deadnettle (deadnettle; 125 g ai/ha) | Plant response rating, Deadnettle (deadnettle; 31 g ai/ha) | Plant response rating (deadnettle) | Plant response rating, Surinam Grass (surinam grass; 31 g ai/ha) | further results
1 | O=C1NC[C@H](c2cccc(C(F)(F)F)c2)[C@H]1C(=O)Nc1ccccc1F [Compound 204, (3R,4S)—N-(2-fluorophenyl)-2-oxo-4-[3-(trifluoromethyl)phenyl]-3-pyrrolidinecarboxamide] | 0 | 0 | 35 | 40 | 95 | 95 | 98 | 98 | 15 | 45 | 5 | 60 | 98 | 100 | 100 | 25 | 25 | 25 | 35 | 35 | Plant response rating, Surinam Grass (surinam grass; 62 g ai/ha): 60; Plant response rating, Surinam Grass (surinam grass; 125 g ai/ha): 98; Plant response rating, Surinam Grass (surinam grass; 250 g ai/ha): 95
2 | O=C1NC[C@H](c2cccc(C(F)(F)F)c2)[C@H]1C(=O)Nc1cccc(F)c1F [Compound 206] | 30 | 50 | 75 | 90 | 80 | 98 | 98 | 98 | 30 | 55 | 35 | 75 | 95 | 100 | 100 | 35 | 40 | 20 | 75 | 50 | Plant response rating, Sprangletop, Brdd. (sprangletop, Brdd.; 64 g ai/ha): 90; Plant response rating, Surinam Grass (surinam grass; 62 g ai/ha): 95; Plant response rating, Surinam Grass (surinam grass; 125 g ai/ha): 85; Plant response rating, Surinam Grass (surinam grass; 250 g ai/ha): 98
